Test results: PubChem BioAssay (NCI)
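The compound was tested at five concentrations on cells cultured in 96-well plates, with a 48-hour exposure period. GI50 is the concentration that inhibits growth by half. The concentration for full growth arrest is given as TGI.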

Key:
Assay in all cases: DTP human tumour cell line panel, 48 h
ACHN renal = system: ACHN renal
SNB-19 CNS = system: SNB-19 CNS
UACC-62 melanoma = system: UACC-62 melanoma
UO-31 renal = system: UO-31 renal
MALME-3M melanoma = system: MALME-3M melanoma
EKVX NSCLC = system: EKVX NSCLC
U251 CNS = system: U251 CNS
NCI-H226 lung = system: NCI-H226 lung
RXF 393 renal = system: RXF 393 renal
NCI-H522 lung = system: NCI-H522 lung

Row | SMILES | GI50 (ACHN renal) [µM] | TGI (ACHN renal) [µM] | GI50 (SNB-19 CNS) [µM] | TGI (SNB-19 CNS) [µM] | GI50 (UACC-62 melanoma) [µM] | TGI (UACC-62 melanoma) [µM] | GI50 (UO-31 renal) [µM] | TGI (UO-31 renal) [µM] | GI50 (MALME-3M melanoma) [µM] | TGI (MALME-3M melanoma) [µM] | GI50 (EKVX NSCLC) [µM] | TGI (EKVX NSCLC) [µM] | GI50 (U251 CNS) [µM] | TGI (U251 CNS) [µM] | GI50 (NCI-H226 lung) [µM] | TGI (NCI-H226 lung) [µM] | GI50 (RXF 393 renal) [µM] | TGI (RXF 393 renal) [µM] | GI50 (NCI-H522 lung) [µM] | TGI (NCI-H522 lung) [µM]
1 | COC(=O)C(C)NP(=O)(OCc1ccc(Cn2cnc3c(=O)[nH]c(N)nc32)cc1)Oc1ccccc1 (centres undefined) | > 100 | > 100 | > 100 | > 100 | > 100 | > 100 | > 100 | > 100 | > 100 | > 100 | > 100 | > 100 | > 100 | > 100 | > 100 | > 100 | > 100 | > 100 | > 100 | > 100
2 | O=C(O)c1ccc(O)c(N=Nc2cc(S(=O)(=O)O)c3ccccc3c2O)c1 | – | > 100 | – | > 100 | – | – | – | > 100 | – | > 100 | – | > 100 | – | > 100 | – | > 100 | – | > 100 | – | –
3 | Cc1c(C(=O)CC(=O)C(=O)Nc2ccc(Cl)c(Cl)c2)[n+](=O)c2ccccc2n1[O-] | – | > 100 | – | > 100 | – | 32.7 | – | > 100 | – | 36.5 | – | 36.9 | – | 72.3 | – | > 100 | – | 92.2 | – | 37
4 | NC1=C(Cl)C(=O)c2ccc(S(N)(=O)=O)cc2C1=O | 0.263 | 0.895 | 0.305 | 1.05 | 0.135 | 0.273 | 0.211 | 0.564 | 0.0426 | 0.137 | 1.53 | 2.91 | 0.184 | 0.871 | 0.231 | 0.595 | 0.286 | 0.903 | 0.189 | 0.403
5 | Nc1ncnc(NC2C=C(CO)C(O)C2O)c1[N+](=O)[O-] (centres undefined) | – | > 100 | – | > 100 | – | > 100 | – | > 100 | – | – | – | > 100 | – | > 100 | – | > 100 | – | > 100 | – | –
6 | O=[N+]([O-])c1cc(CCl)ccc1CCl | – | 3.09 | – | 3.8 | – | 11.4 | – | 3.18 | – | 3.51 | – | 3.38 | – | 3.14 | – | 11 | – | 1.65 | – | 3.98
7 | COc1ccc(-c2cnc3ccnn3c2-c2cc(OC)c(OC)c(OC)c2)cc1 | 6.19 | > 100 | 5.16 | > 100 | 2.15 | > 100 | 4.25 | > 100 | 5.41 | > 100 | – | – | 4.64 | > 100 | 8.13 | > 100 | 2.6 | > 100 | 0.857 | > 100
8 | S=c1nc2[nH]ncc2c(N/N=C/c2ccccc2)[nH]1 | 63.3 | > 100 | > 100 | > 100 | 72.7 | > 100 | > 100 | > 100 | > 100 | > 100 | > 100 | > 100 | 93.8 | > 100 | > 100 | > 100 | > 100 | > 100 | > 100 | > 100
9 | CC(C)NCC(O)COC(=O)c1cccs1 (centres undefined) | – | > 100 | – | > 100 | – | > 100 | – | > 100 | – | > 100 | – | > 100 | – | – | – | – | – | > 100 | – | > 100
10 | ClC1CCC2OOC1O2 (centres undefined) | – | > 100 | – | > 100 | – | > 100 | – | > 100 | – | > 100 | – | > 100 | – | > 100 | – | > 100 | – | > 100 | – | > 100
11 | CCc1ccccc1NC(=O)CCc1n[nH]c(=S)o1 | – | > 100 | – | > 100 | – | > 100 | – | > 100 | – | > 100 | – | > 100 | – | > 100 | – | > 100 | – | – | – | –
12 | COC(=O)C(C(=O)C(=O)Nc1ccccc1C(C)=O)c1nc2ccc(Cl)cc2[nH]c1=O (centres undefined) | – | > 100 | – | > 100 | – | > 100 | – | > 100 | – | > 100 | – | > 100 | – | > 100 | – | > 100 | – | > 100 | – | –
13 | O=C(Nc1ccccc1)Nc1cccc(-n2cc(-c3ccncc3)c(-c3ccc(O)c(Cl)c3)n2)c1 | 2.95 | 34.7 | 6.27 | > 100 | 3.73 | 15.5 | 3.43 | 31.8 | 2.25 | 6.02 | – | – | 2.17 | 6.06 | 7.35 | > 100 | 2.43 | 9.63 | 2.26 | 6.73
14 | COc1ccc(/C=C2\CN(Cc3cn(CCCNc4ccnc5cc(Cl)ccc45)nn3)C/C(=C\c3ccc(OC)c(OC)c3)C2=O)cc1OC | 1.64 | 3.11 | 1.85 | 7.62 | 1.49 | 3.16 | 1.53 | 2.88 | 1.75 | 3.54 | – | – | 1.19 | 3.88 | 1.97 | 4.74 | 1.56 | 3.01 | 1.32 | 3.06
15 | O=C(/C=C\c1cccc2ccccc12)c1cccs1 | – | 24.1 | – | 25.3 | – | 21.5 | – | 25.6 | – | 25.1 | – | 25.9 | – | 16.5 | – | – | – | – | – | 8.49
16 | CCOC(=O)c1c(-c2ccccc2)[n+](=O)c2ccc(Cl)cc2n1[O-] | 2.93 | 11.3 | 10.4 | > 100 | 12.5 | 25.4 | 1.92 | 3.69 | – | – | 2.4 | 8.32 | 2.68 | 8.57 | 5.2 | 17.4 | 19.3 | 49.5 | > 100 | > 100
17 | COc1ccc(-c2nn(-c3cccc(NC(=O)Nc4ccc(Cl)c(C(F)(F)F)c4)c3)cc2-c2ccncc2)cc1Cl | 2.32 | 13.8 | 3.77 | > 100 | 1.93 | 5.01 | 2.12 | 13.3 | 2.27 | 7.58 | – | – | 1.32 | 3.34 | 2.53 | 8.22 | 1.42 | 4.83 | 1.85 | 6.77
